Assay results: patent US20160243022A1, “Use of Fermented Milk Product for Skin Treatment” (GIVAUDAN S.A., priority 2006, published 2016)

System: normal human dermal fibroblasts (NHDF)
Experiment: [3H] proline incorporation into intracellular and ECM layer proteins (collagen synthesis)
Assay type: cell-based
Conditions: 20 micro g/ml
Description: Normal human dermal fibroblasts (NHDF) were cultured in-vitro with radio labelled [^3H] proline. Collagen is a proline-rich protein. The level of radio labelled proline found in proteins, following culturing of the NHDF, is a measure of the rate of collagen synthesis. Yogurtene™ can be added to the cell culture to measure the effect of Yogurtene™ on the rate of proline uptake (collagen synthesis).
The study investigated the increase in radio labelled proline found in: (i) soluble/secreted proteins, and (ii) intracellular and extra-cellular matrix (ECM) proteins.
Beta-Transforming Growth Factor (β-TGF) and ascorbic acid are known collagen synthesis promoters and were used as controls in both studies.

O=C1O[C@H]([C@@H](O)CO)C(O)=C1O [Ascorbic acid]
Proline incorporation into intracellular & ECM layer proteins: 12764 Count/min
